Reference: patent US20260297042A1, “BIARYLAMIDE DERIVATIVES AND THEIR USE AS PKMYT1 INHIBITORS” (CANCER RESEARCH TECHNOLOGY LIMITED, priority 2023, published 2026)
Where a name gives a salt, the structure may show the parent alone.

What was measured:
[1] = target: T1, Human PKMYT1 (Homo sapiens, UniProt Q99640); assay: PKMYT1 biochemical ADP-Glo enzymatic assay; conditions: ADP-Glo; 15 nM PKMYT1 kinase domain, 500 µM ATP, 60 minutes at 26° C.; banded
T1 construct: Human PKMYT1 75-362 was cloned as a TEV cleavable 6xHis fusion; 6xHis (TEV cleavable) (cleaved yes); made in house; host or cells: bacterial cells
T1 sequence (Q99640 75-362): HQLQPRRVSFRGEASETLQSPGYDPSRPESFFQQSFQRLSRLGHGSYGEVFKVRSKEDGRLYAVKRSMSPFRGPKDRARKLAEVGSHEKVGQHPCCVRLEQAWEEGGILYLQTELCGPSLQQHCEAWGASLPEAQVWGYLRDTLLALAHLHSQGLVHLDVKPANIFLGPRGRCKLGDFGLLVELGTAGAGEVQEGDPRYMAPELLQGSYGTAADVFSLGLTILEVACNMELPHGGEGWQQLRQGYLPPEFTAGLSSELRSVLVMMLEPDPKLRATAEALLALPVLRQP
Procedure, shortened: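 IC50 values come from 10-point 3-fold series, with replicates required within 3-fold and r2 >0.9. ADP formed by PKMYT1 intrinsic ATPase (500 uM ATP, 60 min, 26° C.) was quantified by ADP-Glo luminescence. The enzyme was the TEV-cleaved kinase domain 75-362 at 15 nM, in HEPES pH 7.5 buffer.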

[2] = target: T2, WEE1 (Homo sapiens, UniProt P30291); assay: Selectivity versus WEE1 assay (ADP-Glo enzymatic assay); type: biochemical; conditions: banded; for IC50: ADP-Glo, 15 nM WEE1, 60 minutes at 26° C.; for PKMYT1 vs. WEE1 selectivity: fold difference in selectivity for PKMYT1 over WEE1, ">N" = at least in this band but could be higher
T2 construct: purchased Thermo Fisher PR7373A
T2 sequence (P30291 whole entry): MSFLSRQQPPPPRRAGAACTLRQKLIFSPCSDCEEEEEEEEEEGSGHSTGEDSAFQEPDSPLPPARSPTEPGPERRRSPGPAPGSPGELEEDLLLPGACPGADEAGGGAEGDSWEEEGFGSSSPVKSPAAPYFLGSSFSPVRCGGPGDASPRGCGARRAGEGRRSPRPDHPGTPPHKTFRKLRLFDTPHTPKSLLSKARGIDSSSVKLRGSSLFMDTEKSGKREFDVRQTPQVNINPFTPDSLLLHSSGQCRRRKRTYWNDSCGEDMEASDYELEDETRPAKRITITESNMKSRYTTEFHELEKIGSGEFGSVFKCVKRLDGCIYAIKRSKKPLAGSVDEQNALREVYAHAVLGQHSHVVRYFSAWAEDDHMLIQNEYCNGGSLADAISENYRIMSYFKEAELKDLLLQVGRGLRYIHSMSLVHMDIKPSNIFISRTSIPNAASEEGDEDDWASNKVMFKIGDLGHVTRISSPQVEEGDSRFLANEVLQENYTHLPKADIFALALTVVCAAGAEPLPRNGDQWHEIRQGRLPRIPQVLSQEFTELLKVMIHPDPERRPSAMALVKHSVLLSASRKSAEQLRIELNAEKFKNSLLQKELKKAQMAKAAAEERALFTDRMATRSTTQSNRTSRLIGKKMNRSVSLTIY
Protocol: Selectivity versus WEE1 assay: Selectivity was established using the same format as outlined for PKMYT1. After dosing of compounds via the Echo acoustic dispenser—as described above—WEE1 (Thermo Fisher PR7373A) was added to each well at a final concentration of 15 nM in a buffer of 50 mM HEPES (pH 7.5), 10 mM MgCl2, 1 mM EGTA, 0.01% Brij-35, 1% DMSO. 30 µM ATP was added to start the reaction with the final assay volume being 4 μl. The plate was then incubated for 60 minutes at 26° C. before the addition of 4 μl of ADP-Glo Reagent. Following a further 60 minute incubation the assay signal was developed by the addition of 8 μl ADP-Glo Detection Reagent. After 60 minutes the luminescence signal was read on a PHERAStar FS microplate reader (BMG Labtech).
Data analysis: Data was captured and analysed within the Dotmatics Studies software module where dose response curves were generated and IC50 values determined. Acceptance and verification of data followed strict in-house business rules which are summarised as follows. […] Technical and biological replicates of each compound are routinely tested and replicate IC50 values must fall within 3-fold of each other with dose response curves showing ‘goodness of fit’ r2 values >0.9. Failure to meet any of these defined criteria result in rejection of data.

IC50 [1]	IC50 [2]	PKMYT1 vs. WEE1 selectivity [2]	SMILES
50 to 1000 nM	1000 to 11000 nM	W (10-<100 fold)	Cc1ccc(O)c(C)c1NC(=O)c1cnc(Nc2ccn(CCN)n2)s1 [BAA-053, 2-[[1-(2-Aminoethyl)pyrazol-3-yl]amino]-N-(3-hydroxy-2,6-dimethyl-phenyl)thiazole-5-carboxamide]
1000 to 11000 nM	> 11000 nM	W (10-<100 fold)	Cc1ccc(O)c(C)c1NC(=O)c1cnc(Nc2ccn([C@H]3CCCNC3)n2)s1 [BAA-054, N-(3-hydroxy-2,6-dimethyl-phenyl)-2-[1-[(3S)-3-piperidyl]pyrazol-3-yllamino]thiazole-5-carboxamide (hydrochloride)]
50 to 1000 nM	> 11000 nM	>X (100-<1000 fold)	Cc1ccc(O)c(C)c1NC(=O)c1cnc(Nc2ccn(C3CCNCC3)n2)s1 [BAA-055]
50 to 1000 nM	> 11000 nM	X (100-<1000 fold)	Cc1ccc(O)c(C)c1NC(=O)c1cnc(Nc2ccn([C@@H]3CCNC3)n2)s1 [BAA-056, N-(3-hydroxy-2,6-dimethyl-phenyl)-2-[[1-[(3R)-pyrrolidin-3-yl]pyrazol-3-yl]amino]thiazole-5-carboxamide hydrochloride]
1000 to 11000 nM	> 11000 nM	>W (10-<100 fold)	Cc1ccc(O)c(C)c1NC(=O)c1cnc(Nc2ccn([C@H]3CCNC3)n2)s1 [BAA-057, N-(3-hydroxy-2,6-dimethyl-phenyl)-2-[1-[(3S)-pyrrolidin-3-yl]pyrazol-3-yllamino]thiazole-5-carboxamide (hydrochloride)]
< 50 nM	> 11000 nM	X (100-<1000 fold)	Cc1ccc(O)c(C)c1NC(=O)c1cnc(Nc2ccn(CCCC(=O)O)n2)s1 [BAA-058, 4-[3-[[5-[(3-Hydroxy-2,6-dimethyl-phenyl)carbamoyl]thiazol-2-yl]amino]pyrazol-1-yl]butanoic acid]
< 50 nM	> 11000 nM	X (100-<1000 fold)	Cc1ccc(O)c(C)c1NC(=O)c1cnc(Nc2ccn(CC(=O)O)n2)s1 [BAA-059, 2-[3-[[5-[(3-hydroxy-2,6-dimethyl-phenyl)carbamoyl]thiazol-2-yl]amino]pyrazol-1-yl]acetic acid]
50 to 1000 nM	> 11000 nM	>X (100-<1000 fold)	CCNc1ncc(C(=O)Nc2c(C)ccc(O)c2C)s1 [BAA-060, 2-(ethylamino)-N-(3-hydroxy-2,6-dimethyl-phenyl)thiazole-5-carboxamide]
1000 to 11000 nM	> 11000 nM	>W (10-<100 fold)	Cc1ccc(O)c(C)c1NC(=O)c1cnc(NCCO)s1 [BAA-062, N-(3-hydroxy-2,6-dimethyl-phenyl)-2-(2-hydroxyethylamino)thiazole-5-carboxamide]
1000 to 11000 nM	> 11000 nM	>W (10-<100 fold)	COCCNc1ncc(C(=O)Nc2c(C)ccc(O)c2C)s1 [BAA-063, N-(3-hydroxy-2,6-dimethyl-phenyl)-2-(2-methoxyethylamino)thiazole-5-carboxamide]
50 to 1000 nM	> 11000 nM	>X (100-<1000 fold)	Cc1ccc(O)c(C)c1NC(=O)c1cnc(NCCCN2CCOCC2)s1 [BAA-065, N-(3-hydroxy-2,6-dimethyl-phenyl)-2-(3-morpholinopropylamino)thiazole-5-carboxamide]
50 to 1000 nM	> 11000 nM	>X (100-<1000 fold)	Cc1ccc(O)c(C)c1NC(=O)c1cnc(NCC2CCN(C(=O)OC(C)(C)C)CC2)s1 [BAA-066]
1000 to 11000 nM	> 11000 nM	>W (10-<100 fold)	Cc1ccc(O)c(C)c1NC(=O)c1cnc(NC2CCN(S(C)(=O)=O)CC2)s1 [BAA-067, N-(3-hydroxy-2,6-dimethyl-phenyl)-2-[(1-methylsulfonyl-4-piperidyl)amino]thiazole-5-carboxamide]
50 to 1000 nM	> 11000 nM	>X (100-<1000 fold)	Cc1ccc(O)c(C)c1NC(=O)c1cnc(NCCNC(=O)OC(C)(C)C)s1 [BAA-068, tert-butyl N-[2-[5-[(3-hydroxy-2,6-dimethyl-phenyl)carbamoyl]thiazol-2-yllamino]ethyl]carbamate]
50 to 1000 nM	> 11000 nM	>X (100-<1000 fold)	Cc1ccc(O)c(C)c1NC(=O)c1cnc(NCCCN2CCS(=O)(=O)CC2)s1 [BAA-072, 2-[3-(1,1-dioxo-1,4-thiazinan-4-yl)propylamino]-N-(3-hydroxy-2,6-dimethyl-phenyl)thiazole-5-carboxamide]
50 to 1000 nM	> 11000 nM	>X (100-<1000 fold)	Cc1ccc(O)c(C)c1NC(=O)c1cnc(NCCCN2CCN(C(=O)OC(C)(C)C)CC2)s1 [BAA-073, tert-butyl 4-[3-[[5-[(3-hydroxy-2,6-dimethyl-phenyl)carbamoyl]thiazol-2-yl]amino]propyl]piperazine-1-carboxylate]
1000 to 11000 nM	> 11000 nM	>W (10-<100 fold)	CCC(=O)NCCCNc1ncc(C(=O)Nc2c(C)ccc(O)c2C)s1 [BAA-076, N-(3-hydroxy-2,6-dimethyl-phenyl)-2-[3-(propanoylamino)propylamino]thiazole-5-carboxamide]
50 to 1000 nM	> 11000 nM	>X (100-<1000 fold)	CCC(=O)N1CCC(CNc2ncc(C(=O)Nc3c(C)ccc(O)c3C)s2)CC1 [BAA-077, N-(3-hydroxy-2,6-dimethyl-phenyl)-2-[(1-propanoyl-4-piperidyl)methylamino]thiazole-5-carboxamide]
50 to 1000 nM	> 11000 nM	>X (100-<1000 fold)	Cc1ccc(O)c(C)c1NC(=O)c1cnc(NCCC(=O)N2CCOCC2)s1 [BAA-078, N-(3-hydroxy-2,6-dimethyl-phenyl)-2-[(3-morpholino-3-oxo-propyl)amino]thiazole-5-carboxamide]
1000 to 11000 nM	> 11000 nM	>W (10-<100 fold)	Cc1ccc(O)c(C)c1NC(=O)c1cnc(NCC2CCNCC2)s1 [BAA-079, N-(3-hydroxy-2,6-dimethyl-phenyl)-2-(4-piperidylmethylamino)thiazole-5-carboxamide hydrochloride]
50 to 1000 nM	> 11000 nM	>X (100-<1000 fold)	Cc1ccc(O)c(C)c1NC(=O)c1cnc(Nc2ccn([C@@H]3CCN(C(=O)C(C)(C)C)C3)n2)s1 [BAA-080, 2-[[1-[(3R)-1-(2.2-Dimethylpropanoyl)pyrrolidin-3-yl]pyrazol-3-yl]amino]-N-(3-hydroxy-2,6-dimethyl-phenyl)thiazole-5-carboxamide]
50 to 1000 nM	> 11000 nM	>X (100-<1000 fold)	Cc1ccc(O)c(C)c1NC(=O)c1cnc(Nc2ccn([C@@H]3CCN(C(=O)CC(C)(C)C)C3)n2)s1 [BAA-081, 2-[[1-[(3R)-1-(3,3-dimethylbutanoyl)pyrrolidin-3-yl]pyrazol-3-yl]amino]-N-(3-hydroxy-2,6-dimethyl-phenyl)thiazole-5-carboxamide]
50 to 1000 nM	> 11000 nM	>X (100-<1000 fold)	Cc1ccc(O)c(C)c1NC(=O)c1cnc(Nc2ccn([C@@H]3CCN(C(=O)C4CCOCC4)C3)n2)s1 [BAA-082]
50 to 1000 nM	> 11000 nM	>Y (1000-5000 fold)	Cc1ccc(O)c(C)c1NC(=O)c1cnc(Nc2ccn([C@@H]3CCN(C(=O)Cc4ccccc4)C3)n2)s1 [BAA-083]
50 to 1000 nM	> 11000 nM	>Y (1000-5000 fold)	Cc1ccc(O)c(C)c1NC(=O)c1cnc(Nc2ccn([C@@H]3CCN(C(=O)CC(F)(F)F)C3)n2)s1 [BAA-084]
< 50 nM	> 11000 nM	>Y (1000-5000 fold)	CCC(=O)N1CC[C@@H](n2ccc(Nc3ncc(C(=O)Nc4c(C)ccc(O)c4C)s3)n2)C1 [BAA-085]
50 to 1000 nM	> 11000 nM	>Y (1000-5000 fold)	Cc1ccc(O)c(C)c1NC(=O)c1cnc(Nc2ccn([C@@H]3CCN(C(=O)C(C)C)C3)n2)s1 [BAA-086]
